Data as given in patent publication US7135480B2, “Substituted 1-benzoyl-3-cyano-pyrrolo [1,2-a] quinolines and analogs as activators of caspases and inducers of apoptosis” (Cytovia, Inc., priority 2002, dated 2006).
Like-named read-outs stand apart in the source and are kept apart here.

Legend:
ZR-75-1 = experiment: Caspase cascade activation assay (N-(Ac-DEVD)-N'-ethoxycarbonyl-R110 fluorogenic substrate) in ZR-75-1 cells; format: cell-based, Human; details: for EC50: read-out: Caspase potency EC50; for Caspase activity (Ratio): ratio of net RFU of compound to control, 0.16 to 10 μM final
Method: (§1) Human breast cancer cell lines T-47D and ZR-75-1 were grown according to media component mixtures designated by American Type Culture Collection +10% FCS (Invitrogen Corporation), in a 5% CO2–95% humidity incubator at 37° C. T-47D and ZR-75-1 cells were maintained at a cell density between 30 and 80% confluency and for HL-60 at a cell density of 0.1 to 0.6×10^6 cells/mL. Cells were harvested at 600×g and resuspended at 0.65×10^6 cells/mL into appropriate media +10% FCS. An aliquot of 45 μL of cells was added to a well of a 96-well microtiter plate containing 5 μL of a 10% DMSO in RPMI-1640 media solution containing 1.6 to 100 μM of 1-benzoyl-3-cyano-pyrrolo[1,2-a]quinoline or other test compound (0.16 to 10 μM final). An aliquot of 45 μL of cells was added to a well of a 96-well microtiter plate containing 5 μL of a 10% DMSO in RPMI-1640 media solution without test compound as the control sample. The samples were mixed by agitation and then incubated at 37° C. for 24 h in a 5% CO2–95% humidity incubator. After incubation, the samples were removed from the incubator and 50 μL of a solution containing 20 μM of N-(Ac-DEVD)-N′-ethoxycarbonyl-R110 fluorogenic substrate (SEQ ID NO:1) (Cytovia, Inc.; U.S. Pat. No. 6,335,429), 20% sucrose (Sigma), 20 mM DTT (Sigma), 200 mM NaCl (Sigma), 40 mM Na PIPES buffer pH 7.2 (Sigma), and 500 μg/mL lysolecithin (Calbiochem) was added. The samples were mixed by agitation and incubated at room temperature. Using a fluorescent plate reader (Model 1420 Wallac Instruments), an initial reading (T=0) was made approximately 1–2 min after addition of the substrate solution, employing excitation at 485 nm and emission at 530 nm, to determine the background fluorescence of the control sample. After approximately 3 h of incubation, the samples were read for fluorescence as above (T=3 h).
(§2) The Relative Fluorescence Unit values (RFU) were used to calculate the sample readings as follows: RFU(T=3h)−Control RFU(T=0)=Net RFU(T=3h)
(§3) The activity of caspase cascade activation was determined by the ratio of the net RFU value for 1-benzoyl-3-cyano-pyrrolo[1,2-a]quinoline to that of control samples. The EC50 (nM) was determined by a sigmoidal dose-response calculation (Prism 2.0, GraphPad Software Inc.).

T-47D [1] = experiment: Caspase cascade activation assay (N-(Ac-DEVD)-N'-ethoxycarbonyl-R110 fluorogenic substrate) in T-47D cells; format: cell-based, Human; details: for EC50: read-out: Caspase potency EC50; for Caspase activity (Ratio): ratio of net RFU of compound to control, 0.16 to 10 μM final
Method: as §1, §2, §3

T-47D [2] = experiment: Inhibition of cell proliferation (GI50, CellTiter 96 AQueous One Solution) in T-47D cells; format: cell-based, Human; details: read-out: GI50 (dose for 50% inhibition of cell proliferation)
Method: (§4) T-47D and SKBr-3 cells were grown and harvested as in Example 84. An aliquot of 90 μL of cells (2.2×10^4 cells/mL) was added to a well of a 96-well microtiter plate containing 10 μl of a 10% DMSO in RPMI-1640 media solution containing 1 nM to 100 μM of 1-benzoyl-3-cyano-pyrrolo[1,2-a]quinoline (0.1 nM to 10 μM final). An aliquot of 90 μL of cells was added to a well of a 96-well microtiter plate containing 10 μL of a 10% DMSO in RPMI-1640 media solution without compound as the control sample for maximal cell proliferation (AMax). The samples were mixed by agitation and then incubated at 37° C. for 48 h in a 5% CO2–95% humidity incubator. After incubation, the samples were removed from the incubator and 20 μL of CellTiter 96 AQUEOUS One Solution Cell Proliferation™ reagent (Promega) was added. The samples were mixed by agitation and incubated at 37° C. for 2–4 h in a 5% CO2–95% humidity incubator. Using an absorbance plate reader (Model 1420 Wallac Instruments), an initial reading (T=0) was made approximately 1–2 min after addition of the solution, employing absorbance at 490 nm. This determines the possible background absorbance of the test compounds. No absorbance for 1-benzoyl-3-cyano-pyrrolo[1,2-a]quinoline was found at 490 nm. After the 2–4 h incubation, the samples were read for absorbance as above (ATest).
(§5) Baseline for GI50 (dose for 50% inhibition of cell proliferation) of initial cell numbers were determined by adding an aliquot of 90 μL of cells or 90 μL of media, respectively, to wells of a 96-well microtiter plate containing 10 μL of a 10% DMSO in RPMI-1640 media solution. The samples were mixed by agitation and then incubated at 37° C. for 0.5 h in a 5% CO2–95% humidity incubator. After incubation, the samples were removed from the incubator and 20 μL of CellTiter 96 AQUEOUS One Solution Cell Proliferation ™ reagent (Promega) was added. The samples were mixed by agitation and incubated at 37° C. for 2–4 h in a 5% CO2–95% humidity incubator. Absorbance was read as above, (AStart) defining absorbance for initial cell number used as baseline in GI50 determinations. […]

SKBr-3 = experiment: Inhibition of cell proliferation (GI50, CellTiter 96 AQueous One Solution) in SKBr-3 cells; format: cell-based; details: read-out: GI50 (dose for 50% inhibition of cell proliferation)
Method: as §4, §5

[3] = Homo sapiens, ZR-75-1, 24 h incubation, sigmoidal dose-response
[4] = Homo sapiens, T47D, T-47D, 24 h incubation, sigmoidal dose-response

Structure (SMILES)	EC50 (ZR-75-1; [3])	EC50 (T-47D [1]; [4])	Caspase activity (Ratio) (ZR-75-1; ZR-75-1, 24 h incubation)	Caspase activity (Ratio) (T-47D [1]; T-47D, 24 h incubation)	also measured
N#Cc1cc(C(=O)c2ccc([N+](=O)[O-])cc2)n2c1ccc1ccccc12 [Example 10, 3-Cyano-1-(4-nitro-benzoyl)-pyrrolo[1,2-a]quinoline]	1260 nM	2180 nM	14	6	
N#Cc1cc(C(=O)c2ccccc2)n2c1ccc1ccccc12 [Example A, 1-benzoyl-3-cyano-pyrrolo[1,2-a]quinoline]			10	7	GI50 (T-47D [2]; Homo sapiens, T47D, 48 h): 30 nM; GI50 (SKBr-3; Homo sapiens, SK-BR-3, 48 h): 32 nM; EC50 (ZR-75-1; Homo sapiens, ZR-75-1, 24 h): 243 nM; EC50 (T-47D [1]; Homo sapiens, T47D, 24 h): 242 nM
N#Cc1cc(C(=O)c2ccc(N3CCCC3)cc2)n2c1ccc1ccccc12 [Example 1, 3-Cyano-1-(4-pyrrolidin-1-yl-benzoyl)-pyrrolo[1,2-a]quinoline]	133 nM	157 nM	7	10	GI50 (T-47D [2]; Homo sapiens, T47D, T-47D, 48 h incubation): 36 nM; GI50 (SKBr-3; Homo sapiens, SK-BR-3, SKBR-3, 48 h incubation): 42 nM
N#Cc1cc(C(=O)c2cccc(Br)c2)n2c1ccc1ccccc12 [Example 5, 1-(3-Bromo-benzoyl)-3-cyano-pyrrolo[1,2-a]quinoline]	159 nM		11		
Cc1ccc(C(=O)c2cc(C#N)c3ccc4ccccc4n23)cc1 [Example 6, 3-Cyano-1-(4-methyl-benzoyl)-pyrrolo[1,2-a]quinoline]	1400 nM	2410 nM	14	12	
N#Cc1cc(C(=O)c2ccc(Cl)cc2)n2c1ccc1ccccc12 [Example 8, 1-(4-Chloro-benzoyl)-3-cyano-pyrrolo[1,2-a]quinoline]	2580 nM	587 nM	11	12	
N#Cc1cc(C(=O)c2ccccc2)n2c3c(ccc12)CCCC3 [Example 2, 1-Benzoyl-3-cyano-6,7,8,9-tetrahydro-pyrrolo[1,2-a]quinoline]	5300 nM	> 10000 nM	2	1	
Cc1ccc2c(ccc3c(C#N)cc(C(=O)c4ccccc4)n32)c1 [Example 13, 1-Benzoyl-3-cyano-7-methyl-pyrrolo[1,2-a]quinoline]	5640 nM	> 10000 nM	2	1	
COc1cccc(C(=O)c2cc(C#N)c3ccc4ccccc4n23)c1 [Example 4, 3-Cyano-1-(3-methoxy-benzoyl)-pyrrollo[1,2-a]quinoline]			10	12	GI50 (T-47D [2]; T-47D, 48 h incubation): 138 nM; GI50 (SKBr-3; SKBR-3, 48 h incubation): 93 nM; EC50 (ZR-75-1; ZR-75-1, 24 h incubation, sigmoidal dose-response): 624 nM; EC50 (T-47D [1]; T-47D, 24 h incubation, sigmoidal dose-response): 463 nM
Cc1cc2c(C#N)cc(C(=O)c3ccccc3)n2c2ccccc12 [Example 12, 1-Benzoyl-3-cyano-5-methyl-pyrrolo[1,2-a]quinoline]	493 nM	1160 nM	13	14	

More lines, main results first:

EC50 (ZR-75-1; [3])	EC50 (T-47D [1]; [4])	Structure (SMILES)	Caspase activity (Ratio) (ZR-75-1; ZR-75-1, 24 h incubation)	Caspase activity (Ratio) (T-47D [1]; T-47D, 24 h incubation)	also measured
147 nM	148 nM	N#Cc1cc(C(=O)c2ccc(N)cc2)n2c1ccc1ccccc12 [Example 11, 1-(4-Amino-benzoyl)-3-cyano-pyrrolo[1,2-a]quinoline]	15	17	
185 nM	351 nM	COc1ccc(C(=O)c2cc(C#N)c3ccc4ccccc4n23)cc1 [Example 7, 3-Cyano-1-(4-methoxy-benzoyl)-pyrrolo[1,2-a]quinoline]	17	13	
150 nM	150 nM	N#Cc1cc(C(=O)c2ccc(F)cc2)n2c1ccc1ccccc12 [Example 9, 3-Cyano-1-(4-fluoro-benzoyl)-pyrrolo[1,2-a]quinoline]	12	12	
> 10000 nM	> 10000 nM	N#Cc1cc(C(=O)c2ccccc2)n2ccccc12 [Example 3, 3-Benzoyl-1-cyano-indolizine]	1	1	
